The values that follow come from the RepoRT retention time repository (doi:10.1016/j.jchromb.2020.122105).

Holding throughout (settings): stereoisomer not certain
Data set [1] is described as follows: RP, Waters ACQUITY UPLC BEH C18, 100 × 2.1 mm, 1.7 µm, 0.2 mL/min, estimated dead time 1.1 min; A: water + 0.025% formic acid + 20 mM ammonium acetate + 0.055% ammonium hydroxide, pH 7; B: methanol; gradient (min/%B) 0/5 5/5 25/100 30/100 30.1/5 35/5.
Data set [2] can be described thus: RP, Waters CORTECS T3, 100 × 2.1 mm, 2.7 µm, 0.15 mL/min, estimated dead time 1.5 min; A: water + 0.1% formic acid, pH 3; B: methanol + 0.1% formic acid, pH 3; gradient (min/%B) 0/5 5/5 25/95 25.1/100 35/100 35.1/5 45/5.
The nature of data set [3]: RP, Waters CORTECS T3, 100 × 2.1 mm, 2.7 µm, 0.3 mL/min, estimated dead time 0.73 min; A: water + 0.1% formic acid, pH 3; B: methanol + 0.1% formic acid, pH 3; gradient (min/%B) 0/0 1/0 6/5 30/100 35/100 35.1/0 40/0.
Data set [4] can be described thus: RP, Waters CORTECS T3, 100 × 2.1 mm, 2.7 µm, 0.25 mL/min, estimated dead time 0.88 min; A: water + 0.1% formic acid, pH 3; B: methanol + 0.1% formic acid, pH 3; gradient (min/%B) 0/0 1/0 6/5 30/100 35/100 35.1/0 40/0.
A short description of data set [5]: RP, Waters CORTECS T3, 100 × 2.1 mm, 2.7 µm, 0.2 mL/min, estimated dead time 1.1 min; A: water + 0.1% formic acid, pH 3; B: methanol + 0.1% formic acid, pH 3; gradient (min/%B) 0/0 1/0 6/5 30/100 35/100 35.1/0 40/0.
The nature of data set [6]: RP, Waters CORTECS T3, 100 × 2.1 mm, 2.7 µm, 0.3 mL/min, estimated dead time 0.73 min; A: water + 0.1% formic acid, pH 3; B: methanol + 0.1% formic acid, pH 3; gradient (min/%B) 0/0 5/0 25/100 30/100 30.1/0 35/0.
Data set [7] in a line: RP, Waters CORTECS T3, 100 × 2.1 mm, 2.7 µm, 0.25 mL/min, estimated dead time 0.88 min; A: water + 0.1% formic acid, pH 3; B: methanol + 0.1% formic acid, pH 3; gradient (min/%B) 0/5 5/5 25/95 25.1/100 35/100 35.1/5 45/5.
Data set [8] in a line: HILIC, Merck SeQuant ZIC-HILIC, 150 × 2.1 mm, 5 µm, 0.75 mL/min, estimated dead time 0.44 min; A: water + 0.1% acetic acid + 10 mM ammonium acetate, pH 4; B: 5% water + 95% acetonitrile + 0.1% acetic acid + 10 mM ammonium acetate, pH 4; gradient (min/%B) 0/95 5/95 20/57 25/57 30/95 40/95.
A short description of data set [9]: RP, Waters CORTECS T3, 100 × 2.1 mm, 2.7 µm, 0.15 mL/min, estimated dead time 1.5 min; A: water + 0.1% formic acid, pH 3; B: methanol + 0.1% formic acid, pH 3; gradient (min/%B) 0/0 1/0 6/5 30/100 35/100 35.1/0 40/0.
The nature of data set [10]: RP, Waters CORTECS T3, 100 × 2.1 mm, 2.7 µm, 0.3 mL/min, estimated dead time 0.73 min; A: water + 0.1% formic acid, pH 3; B: methanol + 0.1% formic acid, pH 3; gradient (min/%B) 0/0 1/0 6/5 30/100 35/100 35.1/0 40/0. This is another data set of the same source.
A short description of data set [11]: RP, Waters CORTECS T3, 100 × 2.1 mm, 2.7 µm, 0.1 mL/min, estimated dead time 2.2 min; A: water + 0.1% formic acid, pH 3; B: methanol + 0.1% formic acid, pH 3; gradient (min/%B) 0/5 5/5 25/95 25.1/100 35/100 35.1/5 45/5.
Data set [12] is described as follows: HILIC, Merck SeQuant ZIC-HILIC, 150 × 2.1 mm, 5 µm, 0.75 mL/min, estimated dead time 0.44 min; A: water + 10 mM ammonium formate, pH 6; B: 5% water + 95% acetonitrile + 10 mM ammonium formate, pH 6; gradient (min/%B) 0/95 5/95 20/57 25/57 30/95 40/95.
The nature of data set [13]: RP, Waters CORTECS T3, 100 × 2.1 mm, 2.7 µm, 0.3 mL/min, estimated dead time 0.73 min; A: water + 0.1% formic acid, pH 3; B: methanol + 0.1% formic acid, pH 3; gradient (min/%B) 0/5 5/5 25/95 25.1/100 35/100 35.1/5 45/5.
A short description of data set [14]: RP, Waters ACQUITY UPLC BEH C18, 100 × 2.1 mm, 1.7 µm, 0.1 mL/min, estimated dead time 2.2 min; A: water + 0.1% formic acid, pH 3; B: methanol + 0.1% formic acid, pH 3; gradient (min/%B) 0/5 5/5 25/95 25.1/100 35/100 35.1/5 45/5.
Experiment in data set [15]: as above
The source holds these as a separate data set.

A short description of data set [16]: RP, Waters CORTECS T3, 100 × 2.1 mm, 2.7 µm, 0.1 mL/min, estimated dead time 2.2 min; A: water + 0.1% formic acid, pH 3; B: methanol + 0.1% formic acid, pH 3; gradient (min/%B) 0/0 1/0 6/5 30/100 35/100 35.1/0 40/0.
Data set [17] can be described thus: RP, Waters ACQUITY UPLC BEH C18, 100 × 2.1 mm, 1.7 µm, 0.1 mL/min, estimated dead time 2.2 min; A: water + 0.045% formic acid + 0.11% ammonium hydroxide, pH 7; B: methanol; gradient (min/%B) 0/5 5/5 25/95 25.1/100 35/100 35.1/5 45/5.

Take `O=C(O)c1cc(=O)c2cccc(O)c2[nH]1` [XANTHURENIC ACID]: the LC retention time in [1] is 1.36 min; in data set [2], 11.8 min; in data set [3] it was 10.5 min; in data set [4] it was 11.1 min; in data set [5], 12 min; in data set [6], 10.3 min. The LC retention time in data set [7] was 9.71 min; in data set [8] it was 9.68 min; in data set [9], 13.4 min; in [10], 10.5 min; in [11], 13.9 min; in [12] it was 9.77 min. Also, the LC retention time in data set [13] was 8.97 min; in [14] it was 13.9 min; in [15] it was 13.8 min; in data set [16], 10.4 min.
In the case of `CC(C)=CCNc1ncnc2nc[nH]c12` [N6-(DELTA2-ISOPENTENYL)-ADENINE], the LC retention time in data set [1] was 15.4 min; in [2], 14.7 min; in data set [3] it was 13.6 min; in data set [4], 14.2 min; in [5], 15 min; in data set [6] it was 12.8 min. The LC retention time in [7] is 12.6 min; in [17], 20.6 min; in [8] it was 0.62 min; in [9] it was 16.5 min; in data set [10], 13.6 min; in [11] it was 17 min. Further, the LC retention time in data set [12] was 0.64 min; in data set [13] it was 12 min; in [14] it was 17.3 min; in data set [15], 17.3 min; in [16], 13.4 min.
